Results taken from patent publication US20240067657A1, “AMIDO-SUBSTITUTED PYRIDYL COMPOUNDS AND METHODS OF USE THEREOF FOR THE TREATMENT OF HERPESVIRUSES” (Merck Sharp & Dohme LLC, priority 2020, published 2024).
Read-outs that look alike come from different tables or passages of the source.

Assays:
[1] = tested on: VZV in MeWo or MRC5 cells; assay: Viral qPCR assay VZV (V0/V1, V2/V3), EC50; type: cell-based
How it was run: (§1)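 Infected cells added to compounds (10-point 3-fold series), ~72 h at 37 °C, then lysed; viral genomes by TaqMan qPCR against plasmid standard, normalized to PPIA in V0/V1 only, EC50 from 4-parameter fit. HCMV AD169, 0.05-0.1 pfu/cell, ± 50% FBS; VZV 0.04-0.1 pfu/cell; HSV-1 F 0.0005-0.004 pfu/cell.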

[2] = target: T1, varicella zoster virus DNA polymerase (Varicella-zoster virus, UniProt P09252); assay: VZV polymerase assay (AlphaLISA, IC50); type: biochemical; settings: polymerase assay of Example 190
T1 construct: made in house; host or cells: SF21 insect cells (baculovirus vector)
T1 sequence (P09252 whole entry): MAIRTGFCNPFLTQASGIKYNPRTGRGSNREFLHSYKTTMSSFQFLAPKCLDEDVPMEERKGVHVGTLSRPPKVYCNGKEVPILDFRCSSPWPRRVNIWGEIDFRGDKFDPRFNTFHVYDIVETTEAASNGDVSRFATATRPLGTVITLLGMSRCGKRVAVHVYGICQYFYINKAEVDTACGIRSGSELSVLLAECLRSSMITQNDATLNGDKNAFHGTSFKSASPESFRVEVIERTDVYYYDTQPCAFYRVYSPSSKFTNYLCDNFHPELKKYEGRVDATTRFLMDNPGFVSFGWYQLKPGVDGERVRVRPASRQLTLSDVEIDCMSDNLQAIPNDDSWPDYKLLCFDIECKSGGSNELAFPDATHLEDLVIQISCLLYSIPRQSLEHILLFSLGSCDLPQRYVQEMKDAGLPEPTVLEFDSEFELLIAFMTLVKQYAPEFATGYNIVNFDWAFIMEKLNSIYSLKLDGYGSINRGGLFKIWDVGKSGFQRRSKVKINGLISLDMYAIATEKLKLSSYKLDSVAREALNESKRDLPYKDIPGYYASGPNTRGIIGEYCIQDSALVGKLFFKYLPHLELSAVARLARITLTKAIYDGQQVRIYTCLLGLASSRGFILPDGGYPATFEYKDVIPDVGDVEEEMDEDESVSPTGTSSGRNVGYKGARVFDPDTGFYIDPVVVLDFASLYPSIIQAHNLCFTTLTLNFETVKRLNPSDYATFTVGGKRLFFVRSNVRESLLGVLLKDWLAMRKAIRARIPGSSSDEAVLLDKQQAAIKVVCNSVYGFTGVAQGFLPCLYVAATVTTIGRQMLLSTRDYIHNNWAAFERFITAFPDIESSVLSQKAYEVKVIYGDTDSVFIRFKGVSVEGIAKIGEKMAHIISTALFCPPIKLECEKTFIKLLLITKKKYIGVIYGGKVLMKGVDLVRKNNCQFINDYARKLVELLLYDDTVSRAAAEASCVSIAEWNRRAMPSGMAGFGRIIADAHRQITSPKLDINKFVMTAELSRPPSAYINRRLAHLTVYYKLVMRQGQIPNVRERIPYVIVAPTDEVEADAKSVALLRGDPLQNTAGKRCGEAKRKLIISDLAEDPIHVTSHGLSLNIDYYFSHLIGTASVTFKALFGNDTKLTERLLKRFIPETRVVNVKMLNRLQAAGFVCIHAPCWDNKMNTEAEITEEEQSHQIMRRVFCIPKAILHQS
How it was run: (§2)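 Baculovirus-expressed polymerase (HCMV 0.2 nM, VZV 0.4 nM final) preincubated 30 min at room temperature with compound in pH 7.5 HEPES buffer; reaction started with 1.6 nM DIG-primer/template and nM dNTPs including biotin-dUTP, run 60 min at 37° C. Incorporation detected by AlphaLISA; IC50 from 4-parameter fit.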

[3] = target: T2, Human cytomegalovirus DNA polymerase (Human cytomegalovirus, UniProt P08546); assay: HCMV polymerase assay (AlphaLISA, IC50); type: biochemical; settings: polymerase assay of Example 190
T2 construct: made in house; host or cells: SF21 insect cells (baculovirus vector)
T2 sequence (P08546 whole entry): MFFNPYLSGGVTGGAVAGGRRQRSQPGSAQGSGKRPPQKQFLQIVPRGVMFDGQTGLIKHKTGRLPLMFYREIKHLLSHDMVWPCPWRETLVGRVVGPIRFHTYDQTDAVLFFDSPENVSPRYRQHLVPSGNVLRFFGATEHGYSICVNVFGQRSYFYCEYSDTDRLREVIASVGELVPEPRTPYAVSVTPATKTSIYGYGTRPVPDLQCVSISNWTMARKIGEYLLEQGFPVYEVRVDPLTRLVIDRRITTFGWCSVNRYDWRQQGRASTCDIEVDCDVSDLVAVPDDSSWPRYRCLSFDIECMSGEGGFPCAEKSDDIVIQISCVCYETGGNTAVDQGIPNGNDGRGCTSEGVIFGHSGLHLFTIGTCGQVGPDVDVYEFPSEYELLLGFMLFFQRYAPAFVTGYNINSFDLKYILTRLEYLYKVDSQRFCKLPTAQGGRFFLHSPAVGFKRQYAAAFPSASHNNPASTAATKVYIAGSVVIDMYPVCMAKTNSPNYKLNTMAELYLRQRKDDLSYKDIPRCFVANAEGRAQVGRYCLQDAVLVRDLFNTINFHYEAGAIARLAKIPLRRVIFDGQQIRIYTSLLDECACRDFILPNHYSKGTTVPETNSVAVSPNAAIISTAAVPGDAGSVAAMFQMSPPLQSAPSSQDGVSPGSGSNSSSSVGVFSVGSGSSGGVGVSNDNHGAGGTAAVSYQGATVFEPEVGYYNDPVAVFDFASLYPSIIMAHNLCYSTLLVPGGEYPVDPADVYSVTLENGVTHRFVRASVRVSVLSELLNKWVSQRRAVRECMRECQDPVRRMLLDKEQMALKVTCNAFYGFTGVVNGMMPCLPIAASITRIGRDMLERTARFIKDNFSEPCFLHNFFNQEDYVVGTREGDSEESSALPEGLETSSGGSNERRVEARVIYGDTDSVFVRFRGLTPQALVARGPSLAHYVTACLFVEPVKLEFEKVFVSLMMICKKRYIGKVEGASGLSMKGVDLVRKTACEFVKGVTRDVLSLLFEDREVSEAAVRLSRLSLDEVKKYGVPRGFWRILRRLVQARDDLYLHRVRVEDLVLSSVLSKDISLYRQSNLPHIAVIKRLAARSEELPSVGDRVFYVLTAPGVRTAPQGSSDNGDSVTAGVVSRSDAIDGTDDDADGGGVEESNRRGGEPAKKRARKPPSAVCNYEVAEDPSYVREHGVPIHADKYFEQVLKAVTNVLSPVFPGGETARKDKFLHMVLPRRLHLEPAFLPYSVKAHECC
How it was run: as §2

[4] = tested on: HCMV Strain AD169 in MRC-5 cells; assay: Viral qPCR assay HCMV (V0/V1, V2/V3), EC50; type: cell-based
How it was run: as §1

[5] = tested on: HSV-1 Strain F in Vero or MRC5 cells; assay: Viral qPCR assay HSV-1 (V0/V1, V2/V3), EC50; type: cell-based
How it was run: as §1

[6] = Human alphaherpesvirus 3, MeWo, MEWO cells, 10%, read-out: VZV Cell (EC50) MEWO 10%
[7] = Human betaherpesvirus 5, AD169, MRC5, viral qPCR assay of Example 191, read-out: HCMV Cell (EC50)
[8] = Human alphaherpesvirus 1, Vero, VERO cells, 10%, read-out: HSV1 Cell (EC50) VERO 10%
[9] = Human alphaherpesvirus 3, MRC5, MRC5 cells, 10%, read-out: VZV Cell (EC50) MRC5 10%
[10] = Human alphaherpesvirus 1, MRC5, MRC5 cells, 10%, read-out: HSV1 Cell (EC50) MRC5 10%

| IC50 [2] [nM] | IC50 [3] [nM] | Structure (SMILES) | EC50 [1, 6] [nM] | EC50 [4, 7] [nM] | EC50 [5, 8] [nM] | EC50 [1, 9] [nM] | EC50 [5, 10] [nM] | EC50 ([1]; Human alphaherpesvirus 3, MeWo, read-out: VZV Cell (EC50) MEWO 10%) [nM] | EC50 ([4]; Human betaherpesvirus 5, AD169, MRC5, read-out: HCMV Cell (EC50)) [nM] | EC50 ([5]; Human alphaherpesvirus 1, Vero, read-out: HSV1 Cell (EC50) VERO 10%) [nM] | EC50 ([1]; MRC5 cells, 10%, read-out: VZV Cell (EC50) MRC5 10%) [nM] | EC50 ([5]; MRC5 cells, 10%, read-out: HSV1 Cell (EC50) MRC5 10%) [nM] |
| --- | --- | --- | --- | --- | --- | --- | --- | --- | --- | --- | --- | --- |
| 67.6 | 104 | Cn1cc(-c2cnc(C(=O)NCc3ccc(Cl)cc3)cc2OC2CCC(C#N)CC2)cn1 (stereo not shown) [Compound 168] | 590 | 1110 | 529 | – | – | – | – | – | – | – |
| 11 | 11.8 | CC(C)n1cc(-c2c[n+]([O-])c(C(=O)NCc3ccc(Cl)cc3)cc2O[C@H]2CCN3C(=O)OC[C@@H]3C2)cn1 [Compound 131] | 158 | 98.5 | 268 | – | – | – | – | – | – | – |
| 6.31 | 16.4 | CCc1noc(-c2cnc(C(=O)NCc3ccc(Cl)cc3)cc2O[C@H]2CCN3C(=O)OC[C@@H]3C2)n1 [Compound 149] | – | 124 | – | 269 | 125 | – | – | – | – | – |
| 27.8 | 117 | CC(=O)N1CCC(Oc2cc(C(=O)NCc3ccc(Cl)cc3)ncc2-c2cnn(C(F)F)c2)CC1 [Compound 70] | 298 | 1220 | 430 | – | – | – | – | – | – | – |
| 19.9 | 29.2 | CC(C)n1ccc(-c2cnc(C(=O)NCc3ccc(Cl)cc3)cc2O[C@H]2CCN3C(=O)OC[C@@H]3C2)n1 [Compound 15] | 159 | 176 | 160 | – | – | – | – | – | – | – |
| 30.8 | 79 | CC(=O)N1CCC(Oc2cc(C(=O)NCc3ccc(Cl)cc3)ncc2-c2cnn(C)c2)CC1 [Compound 6] | 84.5 | 342 | 144 | – | – | – | – | – | – | – |
| 9.39 | 10.4 | O=C(NCc1ccc(Cl)cc1)c1cc(O[C@H]2CCN3C(=O)OC[C@@H]3C2)c(-c2nccs2)cn1 [Compound 40] | 16.7 | 55.7 | 30.8 | – | – | – | – | – | – | – |
| 10.5 | 22.7 | CC(C)(O)C1CCN(c2cnc(C(=O)NCc3ccc(Cl)cc3)cc2O[C@H]2CCN3C(=O)OC[C@@H]3C2)C1 (single isomer, unassigned) [Compound 117-1] | – | 360 | – | – | – | – | – | – | 844 | 566 |
| 7.39 | 10.3 | O=C(NCc1ccc(Cl)cc1)c1cc(O[C@H]2CCN3C(=O)OC[C@@H]3C2)c(-c2cnn(C(F)F)c2)cn1 [Compound 3] | 112 | 180 | 70.9 | 170 | 127 | – | – | – | – | – |
| 12.8 | 16.4 | O=C(NCc1ccc(Cl)cc1)c1cc(O[C@H]2CCN3C(=O)OC[C@@H]3C2)c(-c2cnn3c2COCC3)cn1 [Compound 20] | – | 132 | – | 343 | 235 | – | – | – | – | – |
| 13.8 | 13.6 | CC(C)(O)Cc1cnc(C(=O)NCc2ccc(Cl)cc2)cc1O[C@H]1CCN2C(=O)OC[C@@H]2C1 [Compound 111] | – | 396 | 719 | 1160 | 1120 | – | – | – | – | – |
| 87.7 | 219 | Cn1cc(-c2cnc(C(=O)NCc3ccc(Cl)cc3)cc2O[C@H]2CCN3C(=O)NC[C@H]3C2)cn1 (racemic) [Compound 171] | 883 | 1090 | 1950 | – | – | – | – | – | – | – |
| 1.12 | 0.222 | O=C(NCc1ccc(Cl)cc1)c1cc(O[C@H]2CCN3C(=O)OC[C@@H]3C2)c(-c2cnc(CO)s2)cn1 [Compound 22] | – | 68.8 | 224 | 109 | 150 | – | – | – | – | – |
| 17.4 | 32.5 | N#Cc1ccc(CNC(=O)c2cc(O[C@H]3CCN4C(=O)OC[C@@H]4C3)c(-c3cnn(C(F)F)c3)cn2)cc1 [Compound 91] | 265 | 239 | 239 | – | – | – | – | – | – | – |

| Structure (SMILES) | IC50 [2] [nM] | IC50 [3] [nM] | EC50 [1, 6] [nM] | EC50 [4, 7] [nM] | EC50 [5, 8] [nM] | EC50 [1, 9] [nM] | EC50 [5, 10] [nM] | EC50 ([1]; Human alphaherpesvirus 3, MeWo, read-out: VZV Cell (EC50) MEWO 10%) [nM] | EC50 ([4]; Human betaherpesvirus 5, AD169, MRC5, read-out: HCMV Cell (EC50)) [nM] | EC50 ([5]; Human alphaherpesvirus 1, Vero, read-out: HSV1 Cell (EC50) VERO 10%) [nM] | EC50 ([1]; MRC5 cells, 10%, read-out: VZV Cell (EC50) MRC5 10%) [nM] | EC50 ([5]; MRC5 cells, 10%, read-out: HSV1 Cell (EC50) MRC5 10%) [nM] |
| --- | --- | --- | --- | --- | --- | --- | --- | --- | --- | --- | --- | --- |
| Cn1cc(-c2cnc(C(=O)NCc3ccc(Cl)cc3)cc2O[C@H]2CCN3C(=O)COC[C@@H]3C2)cn1 (racemic) [Compound 157] | 70.8 | 150 | – | – | – | – | – | 852 | 901 | 222 | – | – |
